Source: patent publication US10588317B2, “Isoxazoline-substituted benzamides and analogues as insecticides” (priority 2015, dated 2020)

Tests used:
Assay type in all cases: in vivo
Spodoptera littoralis = Spodoptera littoralis (Egyptian cotton leaf worm), sprayed cotton leaf discs; conditions: foliar, 72 h, application rate 200 ppm, L1 larvae, 3 days after infestation, read-out: control (mortality, anti-feeding effect, growth inhibition)
Procedure, shortened: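 Cotton leaf discs on agar sprayed with aqueous test solutions made from 10'000 ppm DMSO stock; after drying, infested with five L1 larvae. Mortality, anti-feeding and growth inhibition scored versus untreated samples 3 days after infestation; control counted when any category exceeds untreated.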

Thrips tabaci = Thrips tabaci (onion thrips): feeding/contact activity; conditions: 144 h, application rate 200 ppm, Thrips population of mixed ages, 6 days after infestation, read-out: mortality
Description: Sunflower leaf discs were placed on agar in 24-well microtiter plates and sprayed with aqueous test solutions prepared from 10'000 ppm DMSO stock solutions. After drying the leaf discs were infested with a Thrips population of mixed ages. The samples were assessed for mortality 6 days after infestation.

Myzus persicae = Myzus persicae (green peach aphid): feeding/contact activity; conditions: 144 h, application rate 200 ppm, aphid population of mixed ages, 6 days after infestation, read-out: mortality
Description: Sunflower leaf discs were placed onto agar in a 24-well microtiter plate and sprayed with aqueous test solutions prepared from 10'000 ppm DMSO stock solutions. After drying, the leaf discs were infested with an aphid population of mixed ages. The samples were assessed for mortality 6 days after infestation.

Euschistus heros = Euschistus heros (neotropical brown stink bug), sprayed soybean leaves; conditions: 120 h, application rate 200 ppm, N2 nymphs, 5 days after infestation, read-out: effect in at least one of the two categories (mortality or growth inhibition)
Procedure, shortened: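 Soybean leaves on agar sprayed with aqueous dilutions of DMSO stocks, dried, then infested with N2 nymphs. Mortality and growth inhibition scored against untreated samples 5 days after infestation; application rate 200 ppm.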

Diabrotica balteata = Diabrotica balteata (corn root worm), sprayed maize sprouts; conditions: 96 h, application rate 200 ppm, L2 larvae, 4 days after infestation, read-out: effect in at least one of the two categories (mortality or growth inhibition)
Procedure, shortened: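 Maize sprouts on agar sprayed with aqueous dilutions of DMSO stocks, dried, then infested with L2 larvae (6–10 per well). Mortality and growth inhibition scored against untreated controls 4 days after infestation, at 200 ppm application rate.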

Plutella xylostella = Plutella xylostella (diamond back moth), artificial diet; conditions: 120 h, application rate 200 ppm, L2 larvae, 5 days after infestation, read-out: effect in at least one of the two categories (mortality or growth inhibition)
Procedure, shortened: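 Artificial diet in 24-well plates treated with aqueous test solutions made from 10'000 ppm DMSO stocks, dried, then infested with L2 larvae (10 to 15 per well). Mortality and growth inhibition scored against untreated samples 5 days after infestation; activity cut-off at least 80% in either category at 200 ppm.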

Tetranychus urticae = Tetranychus urticae (two-spotted spider mite): feeding/contact activity; conditions: 192 h, application rate 200 ppm, mixed population (mobile stages), 8 days after infestation, read-out: mortality
Description: Bean leaf discs on agar in 24-well microtiter plates were sprayed with aqueous test solutions prepared from 10'000 ppm DMSO stock solutions. After drying the leaf discs were infested with a mite population of mixed ages. The samples were assessed for mortality on mixed population (mobile stages) 8 days after infestation.

Cc1cc(C2=NO[C@@](c3cc(Cl)cc(Cl)c3)(C(F)(F)F)C2)ccc1C(=O)N[C@@H]1CON(S(=O)(=O)CBr)C1 [Compound A173, N-[(4S)-2-(bromomethylsulfonyl)-1,2-oxazolidin-4-yl]-4-[(5S)-5-(3,5-dichlorophenyl)-5-(trifluoromethyl)-4H-1,2-oxazol-3-yl]-2-methylbenzamide]
≥ 80%: mortality at 200 ppm (Spodoptera littoralis) | mortality at 200 ppm (Thrips tabaci) | mortality at 200 ppm (Myzus persicae) | percent effect (mortality or growth inhibition) at 200 ppm (Euschistus heros) | percent effect (mortality or growth inhibition) at 200 ppm (Diabrotica balteata) | percent effect (mortality or growth inhibition) at 200 ppm (Plutella xylostella) | mortality at 200 ppm (Tetranychus urticae)

Cc1cc(C2=NOC(c3cc(Cl)c(C#N)c(Cl)c3)(C(F)(F)F)C2)ccc1C(=O)NC1CON(S(C)(=O)=O)C1 (centres unmarked) [Compound A50]
≥ 80%: mortality at 200 ppm (Spodoptera littoralis) | mortality at 200 ppm (Thrips tabaci) | mortality at 200 ppm (Myzus persicae) | percent effect (mortality or growth inhibition) at 200 ppm (Euschistus heros) | percent effect (mortality or growth inhibition) at 200 ppm (Diabrotica balteata) | percent effect (mortality or growth inhibition) at 200 ppm (Plutella xylostella) | mortality at 200 ppm (Tetranychus urticae)

Cc1cc(C2=NO[C@](c3cc(Cl)c(F)c(Cl)c3)(C(F)(F)F)C2)ccc1C(=O)N[C@H]1CON(S(=O)(=O)NC2(C#N)CC2)C1 [Compound A168]
≥ 80%: mortality at 200 ppm (Spodoptera littoralis) | mortality at 200 ppm (Thrips tabaci) | mortality at 200 ppm (Myzus persicae) | percent effect (mortality or growth inhibition) at 200 ppm (Euschistus heros) | percent effect (mortality or growth inhibition) at 200 ppm (Diabrotica balteata) | percent effect (mortality or growth inhibition) at 200 ppm (Plutella xylostella) | mortality at 200 ppm (Tetranychus urticae)

Cc1cc(C2=NO[C@@](c3cc(Cl)c(F)c(Cl)c3)(C(F)(F)F)C2)ccc1C(=O)N[C@@H]1CON(S(=O)(=O)C2CC2)C1 [Compound A228, N-[(4S)-2-cyclopropylsulfonyl-1,2-oxazolidin-4-yl]-4-[(5S)-5-(3,5-dichloro-4-fluorophenyl)-5-(trifluoromethyl)-4H-1,2-oxazol-3-yl]-2-methylbenzamide]
≥ 80%: mortality at 200 ppm (Spodoptera littoralis) | mortality at 200 ppm (Thrips tabaci) | mortality at 200 ppm (Myzus persicae) | percent effect (mortality or growth inhibition) at 200 ppm (Euschistus heros) | percent effect (mortality or growth inhibition) at 200 ppm (Diabrotica balteata) | percent effect (mortality or growth inhibition) at 200 ppm (Plutella xylostella) | mortality at 200 ppm (Tetranychus urticae)

CCN(C(C)C)S(=O)(=O)N1CC(NC(=O)c2ccc(C3=NO[C@@](c4cc(Cl)c(Cl)c(Cl)c4)(C(F)(F)F)C3)cc2C)CO1 (some centres unmarked) [Compound A104]
≥ 80%: mortality at 200 ppm (Spodoptera littoralis) | mortality at 200 ppm (Thrips tabaci) | mortality at 200 ppm (Myzus persicae) | percent effect (mortality or growth inhibition) at 200 ppm (Euschistus heros) | percent effect (mortality or growth inhibition) at 200 ppm (Diabrotica balteata) | percent effect (mortality or growth inhibition) at 200 ppm (Plutella xylostella) | mortality at 200 ppm (Tetranychus urticae)

CNS(=O)(=O)N1C[C@@H](NC(=O)c2ccc(C3=NO[C@](c4cc(F)cc(C(F)(F)F)c4)(C(F)(F)F)C3)cc2C)CO1 [Compound A180]
≥ 80%: mortality at 200 ppm (Spodoptera littoralis) | mortality at 200 ppm (Thrips tabaci) | mortality at 200 ppm (Myzus persicae) | percent effect (mortality or growth inhibition) at 200 ppm (Euschistus heros) | percent effect (mortality or growth inhibition) at 200 ppm (Diabrotica balteata) | percent effect (mortality or growth inhibition) at 200 ppm (Plutella xylostella) | mortality at 200 ppm (Tetranychus urticae)

Cc1cc(C2=NO[C@@](c3cc(Cl)cc(C(F)(F)F)c3)(C(F)(F)F)C2)ccc1C(=O)N[C@@H]1CON(S(=O)(=O)C(F)F)C1 [Compound A233]
≥ 80%: mortality at 200 ppm (Spodoptera littoralis) | mortality at 200 ppm (Thrips tabaci) | mortality at 200 ppm (Myzus persicae) | percent effect (mortality or growth inhibition) at 200 ppm (Euschistus heros) | percent effect (mortality or growth inhibition) at 200 ppm (Diabrotica balteata) | percent effect (mortality or growth inhibition) at 200 ppm (Plutella xylostella) | mortality at 200 ppm (Tetranychus urticae)

Cc1cc(C2=NO[C@](c3cc(Cl)c(F)c(Cl)c3)(C(F)(F)F)C2)ccc1C(=O)N[C@H]1CON(S(=O)(=O)CC(F)(F)F)C1 [Compound A192, 4-[(5R)-5-(3,5-dichloro-4-fluorophenyl)-5-(trifluoromethyl)-4H-1,2-oxazol-3-yl]-2-methyl-N-[(4R)-2-(2,2,2-trifluoroethylsulfonyl)-1,2-oxazolidin-4-yl]benzamide]
≥ 80%: mortality at 200 ppm (Spodoptera littoralis) | mortality at 200 ppm (Thrips tabaci) | mortality at 200 ppm (Myzus persicae) | percent effect (mortality or growth inhibition) at 200 ppm (Euschistus heros) | percent effect (mortality or growth inhibition) at 200 ppm (Diabrotica balteata) | percent effect (mortality or growth inhibition) at 200 ppm (Plutella xylostella) | mortality at 200 ppm (Tetranychus urticae)

Cc1cc(C2=NO[C@@](c3cc(Cl)c(Cl)c(Cl)c3)(C(F)(F)F)C2)ccc1C(=O)N[C@H]1CON(S(=O)(=O)C(F)F)C1 [Compound A231, N-[(4R)-2-(difluoromethylsulfonyl)-1,2-oxazolidin-4-yl]-2-methyl-4-[(5S)-5-(3,4,5-trichlorophenyl)-5-(trifluoromethyl)-4H-1,2-oxazol-3-yl]benzamide]
≥ 80%: mortality at 200 ppm (Spodoptera littoralis) | mortality at 200 ppm (Thrips tabaci) | mortality at 200 ppm (Myzus persicae) | percent effect (mortality or growth inhibition) at 200 ppm (Euschistus heros) | percent effect (mortality or growth inhibition) at 200 ppm (Diabrotica balteata) | percent effect (mortality or growth inhibition) at 200 ppm (Plutella xylostella) | mortality at 200 ppm (Tetranychus urticae)

Cc1cc(C2=NO[C@@](c3cc(Cl)c(Cl)c(Cl)c3)(C(F)(F)F)C2)ccc1C(=O)NC1CON(S(=O)(=O)N(C)CC2CO2)C1 (stereo partly drawn) [Compound A83, 2-methyl-N-[2-[methyl(oxiran-2-ylmethyl)sulfamoyl]isoxazolidin-4-yl]-4-[(5S)-5-(3,4,5-trichlorophenyl)-5-(trifluoromethyl)-4H-isoxazol-3-yl]benzamide]
≥ 80%: mortality at 200 ppm (Spodoptera littoralis) | mortality at 200 ppm (Thrips tabaci) | mortality at 200 ppm (Myzus persicae) | percent effect (mortality or growth inhibition) at 200 ppm (Euschistus heros) | percent effect (mortality or growth inhibition) at 200 ppm (Diabrotica balteata) | percent effect (mortality or growth inhibition) at 200 ppm (Plutella xylostella) | mortality at 200 ppm (Tetranychus urticae)

Cc1cc(C2=NO[C@@](c3cc(Cl)c(F)c(Cl)c3)(C(F)(F)F)C2)ccc1C(=O)N[C@H]1CON(S(=O)(=O)N(C)CC(F)(F)F)C1 [Compound A150, 4-[(5S)-5-(3,5-dichloro-4-fluoro-phenyl)-5-(trifluoromethyl)-4H-isoxazol-3-yl]-2-methyl-N-[(4R)-2-[methyl(2,2,2-trifluoroethyl)sulfamoyl]isoxazolidin-4-yl]benzamide]
≥ 80%: mortality at 200 ppm (Spodoptera littoralis) | mortality at 200 ppm (Thrips tabaci) | mortality at 200 ppm (Myzus persicae) | percent effect (mortality or growth inhibition) at 200 ppm (Euschistus heros) | percent effect (mortality or growth inhibition) at 200 ppm (Diabrotica balteata) | percent effect (mortality or growth inhibition) at 200 ppm (Plutella xylostella) | mortality at 200 ppm (Tetranychus urticae)
